Results taken from patent publication US20150272939A1, “Identification of Small Molecule Inhibitors of Jumonji AT-Rich Interactive Domain 1A (JARID1A) and 1B (JARID1B) Histone Demethylase” (Yale University, priority 2012, published 2015).
Read-outs that look alike come from different tables or passages of the source.

Assays:
JARID1B = target: T1, JARID1B (Homo sapiens, UniProt Q9UGL1); experiment: FLAG-JARID1B histone demethylase assay with AlphaScreen detection (HTS and dose response); assay type: biochemical; settings: for inhibition at 20 µM: read-out: Inhibitory effect (percent);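 as to Assay Signal (percent): compound tested at 20 µM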;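 as to Assay − Artifact Signal (percent): compound tested at 20 µM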;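 as to all read-outs here: FLAG-tagged JARID1B at 4 nM acting on a biotinylated H3K4me3 peptide, demethylation read by AlphaScreen luminescence, with hits checked against bio-H3K4me2 without enzyme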
T1 construct: The FLAG tagged full length JARID1B enzyme was expressed in Sf21 insect cells using FLAG-JARID1B baculoviruses; FLAG (N); made in house; host or cells: Sf21 insect cells (baculovirus)
T1 sequence (Q9UGL1 whole entry): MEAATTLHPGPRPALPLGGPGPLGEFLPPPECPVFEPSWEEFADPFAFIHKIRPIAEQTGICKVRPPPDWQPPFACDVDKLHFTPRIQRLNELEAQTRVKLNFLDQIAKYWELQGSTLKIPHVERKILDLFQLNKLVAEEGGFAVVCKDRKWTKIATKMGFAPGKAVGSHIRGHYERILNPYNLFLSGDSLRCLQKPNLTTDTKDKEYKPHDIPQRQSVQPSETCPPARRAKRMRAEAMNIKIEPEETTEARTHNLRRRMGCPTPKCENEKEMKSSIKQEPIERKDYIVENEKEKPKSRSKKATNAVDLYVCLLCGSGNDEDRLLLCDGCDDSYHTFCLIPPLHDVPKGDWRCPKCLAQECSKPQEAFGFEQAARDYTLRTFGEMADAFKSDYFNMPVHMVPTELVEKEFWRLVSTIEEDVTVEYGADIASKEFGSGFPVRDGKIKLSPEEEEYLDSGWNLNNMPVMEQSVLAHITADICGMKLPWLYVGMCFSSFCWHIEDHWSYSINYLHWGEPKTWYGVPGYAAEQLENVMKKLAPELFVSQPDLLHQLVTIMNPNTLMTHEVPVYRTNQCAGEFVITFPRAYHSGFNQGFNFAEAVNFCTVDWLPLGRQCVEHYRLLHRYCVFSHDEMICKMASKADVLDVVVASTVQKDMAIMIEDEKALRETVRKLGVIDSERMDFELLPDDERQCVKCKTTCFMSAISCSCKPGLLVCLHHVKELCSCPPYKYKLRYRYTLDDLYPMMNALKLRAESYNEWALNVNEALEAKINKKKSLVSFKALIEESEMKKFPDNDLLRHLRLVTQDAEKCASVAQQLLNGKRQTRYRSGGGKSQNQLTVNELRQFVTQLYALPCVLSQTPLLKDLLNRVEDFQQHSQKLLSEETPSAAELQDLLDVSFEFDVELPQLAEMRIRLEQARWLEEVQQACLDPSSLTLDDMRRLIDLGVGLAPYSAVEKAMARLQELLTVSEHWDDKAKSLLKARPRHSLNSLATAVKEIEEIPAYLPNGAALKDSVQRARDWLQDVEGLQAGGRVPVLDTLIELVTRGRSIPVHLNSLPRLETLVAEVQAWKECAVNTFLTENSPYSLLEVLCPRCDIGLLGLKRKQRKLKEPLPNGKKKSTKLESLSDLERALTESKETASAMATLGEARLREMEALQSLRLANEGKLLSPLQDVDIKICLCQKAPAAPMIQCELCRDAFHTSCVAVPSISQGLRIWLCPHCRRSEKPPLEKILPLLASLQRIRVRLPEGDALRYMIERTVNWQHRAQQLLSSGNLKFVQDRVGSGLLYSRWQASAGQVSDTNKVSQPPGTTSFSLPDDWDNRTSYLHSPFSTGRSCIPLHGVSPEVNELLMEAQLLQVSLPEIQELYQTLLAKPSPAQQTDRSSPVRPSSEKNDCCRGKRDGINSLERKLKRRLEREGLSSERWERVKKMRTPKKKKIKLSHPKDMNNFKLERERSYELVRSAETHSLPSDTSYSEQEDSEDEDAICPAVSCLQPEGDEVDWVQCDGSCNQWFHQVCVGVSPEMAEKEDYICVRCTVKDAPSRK

[1] = AlphaScreen counterscreen against bio-H3K4me2 peptide in the absence of enzyme (artifact signal); settings: for Artifact Signal (percent): effect of the compound when incubated with bio-H3K4me2 peptide (counterscreen, no enzyme);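 as to all read-outs here: counterscreen run without enzyme against bio-H3K4me2 peptide to remove false positive hits from the JARID1 demethylase AlphaScreen screen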
[2] = high-throughput screen, compound 20 μM, standard demethylase conditions (10 μM α-KG, 50 μM Fe (II))
[3] = validation of HTS actives, total signal before subtraction of artifact signal
[4] = counterscreen, bio-H3K4me2 peptide, no enzyme
[5] = assay signal minus artifact signal
[6] = validation of HTS actives, effect of compound in JARID1B AlphaScreen assay
[7] = high-throughput screen, compound 20 μM, IDs marked *: additional hits under reaction condition with 1 mM α-KG

| Compound | inhibition at 20 µM (JARID1B; [2]) [%] | Validation result of HTS active: effect of the compound in the JARID1B AlphaScreen demethylase assay (JARID1B; [3]) | Artifact signal: effect of the compound when it is incubated with bio-H3K4me2 peptide [1, 4] | Assay − Artifact Signal (percent) (JARID1B; [5]) [%] | Assay Signal (percent) (JARID1B; [6]) [%] | Artifact Signal (percent) [1] [%] | other results |
| --- | --- | --- | --- | --- | --- | --- | --- |
| COC(=O)Nc1ccc(S(=O)(=O)N2CCCCCC2)cc1 [YU151614] | 85.5 | −1.67 | −4.92 |  |  |  |  |
| CCCCC(=O)Nc1ccc(N(C)CCc2c(C)nn(C)c2C)c(C(=O)O)c1 [YU208232] | 50.5 |  |  | 19.26 | 37.92 | 18.67 |  |
| Clc1cccc(N2CCN(Cc3ccc4ccccc4c3)CC2)c1 [YU105195] | 38.9 | 8.75 | 5.28 |  |  |  |  |
| Cn1c(C(C#N)=Cc2ccncc2)nc2ccccc21 (single isomer, unassigned) [YU146842] | 90.8 |  |  | 104.16 | 97.21 | −6.95 |  |
| C=CCn1c(Cc2nc3ccccc3[nH]2)n[nH]c1=S [YU147658] | 32.8 |  |  | 28.18 | 27.63 | −0.55 |  |
| Cc1cc(C)nc(N(C#N)C(=S)N(C)C)n1 [YU145653] |  |  |  | 27.17 | 18.58 | −8.59 |  |
| COc1cccc2c1C(=O)c1c(O)c3c(c(O)c1C2=O)C[C@@](O)(C(=O)CO)C[C@@H]3O[C@H]1C[C@H](N)[C@@H](O)[C@H](C)O1.Cl (stereo in doubt) [YU039604, EPIRUBICIN HYDROCHLORIDE, reference compound] | 81.9 | 10.74 | 3.76 |  |  |  |  |
| Cc1cccc(NC(c2cccnc2)c2ccc3cccnc3c2O)n1 (stereo not drawn) [YU172179] | 58.1 |  |  | 10.43 | 63.74 | 53.31 |  |
| O=C(CCCCCCC(=O)N(c1ccccc1)c1ccccc1)N(c1ccccc1)c1ccccc1 [YU105079] | 68.9 | 44.39 | 43.24 |  |  |  |  |
| O=C(NNC(=S)NCC1CCCO1)c1ccccn1 (stereo not drawn) [YU148374] | 84.8 |  |  | 54.50 | 77.28 | 22.77 |  |
| Clc1ccc2nc(-c3ccccn3)c(Nc3ccc4c(c3)OCCO4)n2c1 [YU173004] | 94 |  |  | 48.80 | 49.67 | 0.87 |  |
| CCCN1CCN(C(=O)c2ccncc2)CC1 [YU145702] | 35.9 |  |  | 45.86 | 44.33 | −1.53 |  |
| C[C@@](Cc1ccc(O)c(O)c1)(NN)C(=O)O [YU034292, CARBIDOPA, reference compound] | 100 |  |  | 26.51 | 80.27 | 53.76 |  |
| CCCCC(=O)Nc1ccc(N2CCC(C(N)=O)(N3CCCCC3)CC2)c(C(=O)O)c1 [YU208194] | 63.8 | 17.11 | 11.63 |  |  |  |  |
| [O-][n+]1ccccc1[S-].[O-][n+]1ccccc1[S-].[Zn+2] [YU033800, PYRITHIONE ZINC, reference compound] |  |  |  |  |  |  | Inhibitory effect (percent) (JARID1B): 99.02%; Validation effect minus artifact signal (JARID1B): 1.60; Validation result of HTS active: effect of the compound in the JARID1B AlphaScreen demethylase assay (JARID1B): −18.35; Artifact signal: effect of the compound when it is incubated with bio-H3K4me2 peptide [1]: −19.95 |
| CCOc1c(CNc2ccc(N3CCCC3)cc2)cccc1OC [YU153287] | 54.2 |  |  | 11.21 | 28.35 | 17.14 |  |
| NC(=O)NO [YU033863, HYDROXYUREA, reference compound] |  |  |  | 21.20 | 13.20 | −8.00 | Inhibitory effect (percent) (JARID1B; [7]): 43.49% |
| O=C(Nc1ccc(N2CCCC2)c(C(=O)O)c1)c1ccc(Br)cc1 [YU208200] | 53 | 24.86 | 20.10 |  |  |  |  |
| CCSc1nnc(-c2cc(OC)cc(OC)c2)o1 [YU147278] | 32.8 |  |  | 15.14 | 9.43 | −5.71 |  |

| Compound | inhibition at 20 µM (JARID1B; [2]) [%] | Validation result of HTS active: effect of the compound in the JARID1B AlphaScreen demethylase assay (JARID1B; [3]) | Artifact signal: effect of the compound when it is incubated with bio-H3K4me2 peptide [1, 4] | Assay − Artifact Signal (percent) (JARID1B; [5]) [%] | Assay Signal (percent) (JARID1B; [6]) [%] | Artifact Signal (percent) [1] [%] | other results |
| --- | --- | --- | --- | --- | --- | --- | --- |
| Oc1c(Cl)cc(Cl)cc1Sc1cc(Cl)cc(Cl)c1O [YU033712, BITHIONOL, reference compound] |  | 0.82 | −3.70 |  |  |  | inhibition at 20 µM (JARID1B; [7]): 47.6% |
| COc1ccc(Cl)cc1NC(=S)Nn1cnnc1 [YU148611] | 34.6 |  |  | 17.82 | 15.61 | −2.20 |  |
| O=C(O[C@@H]1Cc2c(O)cc(O)cc2O[C@@H]1c1cc(O)c(O)c(O)c1)c1cc(O)c(O)c(O)c1 [YU153090, EPIGALLOCATECHIN-3- MONOGALLATE, reference compound] |  | 95.83 | 90.25 |  |  |  |  |
| CCC(=O)Nc1cnc(N2CCN(c3ccc(Cl)cc3)CC2)c(C(=O)O)c1 [YU208250] | 44.5 |  |  | 14.69 | 21.70 | 7.01 |  |
| N#CC(=CC=Cc1ccco1)C(N)=S (single isomer, unassigned) [YU144893] | 44.6 |  |  | 22.61 | 62.72 | 40.11 |  |
| Cc1nnc(S)n1NCc1ccc2c(c1)OCO2 [YU147191] | 31.5 |  |  | 43.11 | 45.05 | 1.94 |  |
| Cn1cc(C2=C(c3cn(CCCSC(=N)N)c4ccccc34)C(=O)NC2=O)c2ccccc21 [YU154853, Ro 31-8220, reference compound] | 44 | 41.07 | 38.79 |  |  |  |  |
| C=CCn1c(-c2cccc(OC)c2OC)n[nH]c1=S [YU148159] | 30.4 |  |  | 35.74 | 38.72 | 2.98 |  |
| CCC1=C[C@H]2CN(C1)Cc1c([nH]c3ccccc13)[C@@](C(=O)OC)(c1cc3c(cc1OC)N(C)[C@H]1[C@@](O)(C(=O)OC)[C@H](OC(C)=O)[C@]4(CC)C=CC[N@]5CC[C@]31[C@@H]54)C2.O=C(O)C(O)C(O)C(=O)O [YU221030, V[…], reference compound] |  |  |  |  |  | 18.13 | Assay Signal (percent) (JARID1B): 38.77%; Assay − Artifact Signal (percent) (JARID1B): 20.64%; inhibition at 20 µM (JARID1B): 42.2% |
| Cn1c(=O)n(C)c2cc(S(=O)(=O)NNc3ccccc3)ccc21 [YU153899] |  | 8.44 | 0.54 |  |  |  |  |
| COC(=O)c1cccc(NC(c2cccnc2)c2ccc3cccnc3c2O)c1 (stereo not drawn) [YU172172] | 60.1 | 63.48 | 56.78 |  |  |  |  |
| Cc1ccc(C(=O)Nc2cnc(N3CCN(c4ccccc4Cl)CC3)c(C(=O)O)c2)cc1 [YU208246] | 44.5 |  |  | 10.41 | 10.32 | −0.08 |  |
| Cc1cc2c(C(C)C)c(O)c(O)c(C=O)c2c(O)c1-c1c(C)cc2c(C(C)C)c(O)c(O)c(C=O)c2c1O [YU034280, GOSSYPOL-ACETIC ACID COMPLEX, reference compound] | 78.2 | 54.61 | 64.46 |  |  |  |  |
| CNC[C@H](O)c1ccc(O)c(O)c1 [YU033809, ADRENALINE BITARTRATE, reference compound] | 56.3 |  |  | 47.54 | 40.90 | −6.64 |  |
| CC(=O)Nc1ccc(N(C)CCCc2c(C)nn(C)c2C)c(C(=O)O)c1 [YU208230] | 38.5 | 24.45 | 17.72 |  |  |  |  |
| COCc1cc(O)c(O)c(O)c1-c1c(COC)cc(O)c(O)c1O [YU154887, 2,2,3,3,4,4- HEXAHYDROXY-1,1- BIPHENYL-6,6- DIMETHANOL DIMETHYL ETHER, reference compound] | 103 |  |  | 57.15 | 99.57 | 42.41 |  |
| COc1ccc2c(CCN)c[nH]c2c1.Cl [YU145407] | 43 |  |  | 8.55 | 6.76 | −1.79 |  |
| O=C(O)c1cccc(NCc2ccncc2)c1 [YU145461] | 94.6 |  |  | 95.48 | 96.37 | 0.89 |  |
